The record followed here is US12459916B2, “Substituted indazoles useful for treatment and prevention of allergic and/or inflammatory diseases in animals” (Bayer Pharma Aktiengesellschaft, priority 2016, dated 2025).

Like-named read-outs stand apart in the source and are kept apart here.

One test concerns the target canine IRAK4 (Canis lupus familiaris, UniProt A0A8I3S726). As to the kind of experiment: Canine IRAK4 kinase assay (TR-FRET). Type of test: biochemical. The protocol:
The IRAK4-inhibitory activity of the present compounds on canine IRAK4 was measured in the Irak4 TR-FRET assay (TR-FRET=Time Resolved Fluorescence Resonance Energy Transfer) described hereinafter.
Recombinant fusion protein from N-terminal HIS (Poly-histidine) and canine Irak4, expressed in baculovirus-infected insect cells (Hi5, BTI-TN-5B1-4, cell line purchased from Invitrogen, catalogue No. B855-02) and purified via affinity chromatography, was used as enzyme. The substrate used for the kinase reaction was the biotinylated peptide biotin-Ahx-[…]
50 nl of the respective solution were pipetted into a black low-volume 384-well microtitre plate (Greiner Bio-One, Frickenhausen, Germany), 2 μl of a solution of Irak4 in assay buffer [50 mM HEPES pH 7.5, 5 mM MgCl2, 1.0 mM dithiothreitol, 30 μM activated sodium orthovanadate, 0.1% (w/v) of bovine gamma-globulin (BGG) 0.04% (v/v) nonidet-P40 (Sigma)] were added and the mixture was incubated for 15 min to allow prebinding of the substances to the enzyme prior to the kinase reaction. […] The concentration of the Irak4 was adjusted to the respective activity of the enzyme and set such that the assay was carried out in the linear range. Typical concentrations were in the order of about 0.1 nM.
The resulting mixture was incubated at 22° C. for 1 h to allow formation of a complex of the biotinylated phosphorylated substrate and the detection reagents. The amount of the phosphorylated substrate was then evaluated by measuring the resonance energy transfer from europium chelate-labelled anti-mouse-IgG antibody to streptavidin-XL665. […] The IC50 values were calculated by a 4-parameter fit.

In test [1] the test system is secretion of TNF-α in THP-1 cells. As to the kind of experiment: TNF-α secretion in THP-1 cells. The note with it: Homo sapiens, LPS 0.05 μg/ml, 17 h, read-out: IC50 with respect to the secretion of TNF-α in THP-1 cells. Type of test: cell-based. The protocol:
This test is suited to test substances for their ability to inhibit secretion of TNF-α (tumour necrosis factor alpha) in THP-1 cells (human monocytic acute leukaemia cell line). TNF-α is a cytokine involved in inflammatory processes. In this test, TNF-α secretion is triggered by incubation with bacterial lipopolysaccharide (LPS).
The cells were incubated at room temperature for 15 min. 2-2.5 μl of 0.1 μg/ml LPS (Sigma, Escherichia coli 055:B5, Cat. No. L5418) dissolved in cell culture medium (final concentration 0.05 μg/ml) were then dispensed into each well. As neutral control, cells were treated with 0.05 μg/ml LPS and 1% DMSO and, as inhibitor control, with 1% DMSO only.
The amount of TNF-α was determined using the TNF-alpha HTRF Detection Kit (Cisbio, Cat. No. 62TNFPEB/C). To this end, 2 μl of the detection solution in each case, consisting of anti-TNF-α-XL665 conjugate and anti-TNF-α-cryptate conjugate dissolved in the reconstitution buffer in accordance with the manufacturer's instructions, were added for the HTRF (Homogeneous Time-Resolved Fluorescence) test. After the addition, the mixture was incubated either at room temperature for 3 h or at 4° C. overnight.
The activity of the substances is expressed as the ratio between neutral and inhibitor control in percent. The IC50 values were calculated using a 4-parameter fit.

Setting [2] is: IC50 in the IRAK4 canine kinase assay, values from two experiments, 1 mM ATP.
The mark [3] stands for this setting: recombinant canine IRAK4 enzyme, read-out: IC50 for the inhibition of canine IRAK4.

Chain of canine IRAK4 (A0A8I3S726 1-460): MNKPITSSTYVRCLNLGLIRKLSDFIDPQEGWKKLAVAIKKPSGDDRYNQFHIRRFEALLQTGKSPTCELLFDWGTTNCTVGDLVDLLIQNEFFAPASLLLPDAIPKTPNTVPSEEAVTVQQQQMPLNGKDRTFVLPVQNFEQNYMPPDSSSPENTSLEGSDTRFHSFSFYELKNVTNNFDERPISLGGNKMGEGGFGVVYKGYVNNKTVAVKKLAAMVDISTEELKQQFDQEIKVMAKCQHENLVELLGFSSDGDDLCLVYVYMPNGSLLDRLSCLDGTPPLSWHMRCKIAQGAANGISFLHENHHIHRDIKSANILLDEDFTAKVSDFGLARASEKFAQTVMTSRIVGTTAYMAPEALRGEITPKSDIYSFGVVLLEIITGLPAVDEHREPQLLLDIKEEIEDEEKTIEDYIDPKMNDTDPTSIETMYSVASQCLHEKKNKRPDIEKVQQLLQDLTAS

As to `CC(C)(O)CCn1cc2cc(NC(=O)c3cccc(C(F)F)n3)c(C(C)(C)O)cc2n1` [Example 13, 6-(Difluoromethyl)-N-[2-(3-hydroxy-3-methylbutyl)-6-(2-hydroxypropan-2-yl)-2H-indazol-5-yl]pyridine-2-carboxamide], the IC50 at canine IRAK4 (setting [2]) was 2.68 nM; at canine IRAK4 (setting [3]), 2.2 nM; in test [1], 100 nM.

As for `Cc1nc(C(=O)Nc2cc3cn(CCC(C)(C)O)nc3cc2C(C)(C)O)ccc1F` [Example 19, 5-Fluoro-N-[2-(3-hydroxy-3-methylbutyl)-6-(2-hydroxypropan-2-yl)-2H-indazol-5-yl]-6-methylpyridine-2-carboxamide], the concentration for half-maximal inhibition (IC50) was 6.75 nM at canine IRAK4 (setting [2]), 7.6 nM at canine IRAK4 (setting [3]) and 100 nM in test [1].
